Source: patent US7223751B2, “Sulfonamide derivatives, intermediate thereof, its preparation methods, and pharmaceutical composition comprising the same” (Kolon Ind. Inc., priority 2001, dated 2007)

Tested on: HUVEC (human umbilical vein endothelial cell) cells
Assay: Tube formation activity on matrigel
Assay type: cell-based
Parameters: key: −: control; ±: tube almost resembles control; +: inhibition; ++: significant inhibition; +++: complete inhibition
Details: 16-24 hours
Procedure: In a culture flask previously coated with gelatin, HUVEC (human umbilical vein endothelial cell) cells cultured with a M199 medium (containing 20% FBS, 3 ng/ml bFGF, 100 μg/ml heparin) were treated with trypsin/EDTA, and then number of cells are counted so that number of cells may be 2×10^4 cells/well in a 96-well plate previously coated with matrigel. Samples were then added and cultured in a CO2 culture medium at 37° C. for 16-24 hours.

Row | Compound | Tube Formation (concentration 0.5 μM) | Tube Formation (concentration 5 μM) | Tube Formation (concentration 50 μM) | Tube Formation (concentration 100 μM)
1 | CCCCCCCCN1CC(C(=O)O)N(S(=O)(=O)c2ccc(-n3cccc3)cc2)CC1=O (centres unmarked) [Example 58, 4-Octyl-5-oxo-1-(4-pyrrol-1-yl-benzenesulfonyl)-piperazine-2-carboxylic acid] | ± | ++ | ++ | 
2 | 4-Allyl-1-(4-methoxy-benzenesulfonyl)-5-oxo-piperazine-2-hydroxamate [Example 21] |  | ± | + | 
3 | 4-Cyclopropyl-1-(4-methoxy-benzenesulfonyl)-5-oxo-piperazine-2-hydroxamate [Example 17] |  | + | + | ++
4 | CN(C)CCCN1CC(C(=O)O)N(S(=O)(=O)c2ccc(-c3ccc(Br)cc3)cc2)CC1=O (centres unmarked) [Example 43, 1-(4′-Bromo-biphenyl-4-sulfonyl)-4-(3-dimethylamino-propyl)-5-oxo-piperazine-2-carboxylic acid] | + | ++ | ++ | 
5 | CCCCOCCCN1CC(C(=O)O)N(S(=O)(=O)c2ccc(-c3ccc(Br)cc3)cc2)CC1=O (centres unmarked) [Example 41, 1-(4′-Bromo-biphenyl-4-sulfonyl)-4-(3-butoxy-propyl)-5-oxo-piperazine-2-carboxylic acid] | ++ | ++ | +++ | 
6 | COc1ccc(S(=O)(=O)N2CC(=O)N(CCN3CCCCC3)CC2C(=O)NO)cc1.Cl (centres unmarked) [Example 9, 1-(4-Methoxy-benzenesulfonyl)-5-oxo-4-(2-piperidin-1-yl-ethyl)-piperazine-2-hydroxamate hydrochloride] |  | − | ± | 
7 | COc1ccc(S(=O)(=O)N2CC(=O)N(Cc3ccccn3)CC2C(=O)NO)cc1.Cl (centres unmarked) [Example 13, 1-(4-Methoxy-benzenesulfonyl)-5-oxo-4-pyridin-2-yl-methyl-piperazine-2-hydroxamate hydrochloride] |  | ± | + | +
8 | CCCCN1CC(C(=O)O)N(S(=O)(=O)c2ccc(OC)cc2)CC1=O (centres unmarked) [Example 26, 4-Butyl-1-(4-methoxy-benzenesulfonyl)-5-oxo-piperazine-2-carboxylic acid] |  | ± | + | ++
9 | COc1ccc(S(=O)(=O)N2CC(=O)N(CCN3CCOCC3)CC2C(=O)NO)cc1.Cl (centres unmarked) [Example 11, 1-(4-Methoxy-benzenesulfonyl)-4-(2-morpholin-4-yl-ethyl)-5-oxo-piperazine-2-hydroxamate hydrochloride] |  | ± | + | 
10 | C#CCN1CC(C(=O)O)N(S(=O)(=O)c2ccc(-c3ccc(Br)cc3)cc2)CC1=O (centres unmarked) [Example 35, 1-(4′-Bromo-biphenyl-4-sulfonyl)-5-oxo-4-prop-2-ynyl-piperazine-2-carboxylic acid] | ++ | ++ | +++ | 
11 | O=C(O)C1CN(Cc2ccccc2)C(=O)CN1S(=O)(=O)c1ccc(-c2ccc(Br)cc2)cc1 (centres unmarked) [Example 37, 4-Benzyl-1-(4′-bromo-biphenyl-4-sulfonyl)-5-oxo-piperazine-2-carboxylic acid] | ++ | ++ | +++ | 
12 | 1-(4-Methoxy-benzenesulfonyl)-5-oxo-4-prop-2-ynyl-piperazine-2-hydroxamate [Example 23] |  | + | ++ | +++
13 | 1-Cyclopropyl-5-hydroxymethyl-4-(4-methoxy-benzenesulfonyl)-5-oxo-piperazin-2-one [Example 27] |  | ++ | ++ | 
